Experimental data as given in patent US12351597B2, “Substituted biphenyl or phenylheteroaryl-mannosides as antagonists of FimH” (GLAXOSMITHKLINE INTELLECTUAL PROPERTY DEVELOPMENT LIMITED, priority 2019, dated 2025).

Tests used:
FimH = target: T1, FimH (Escherichia coli, UniProt Q1R2J4); assay: Hemagglutination inhibition assay (HAI); type: cell-based; details: HAI titer / EC>90: concentration reducing bacterial agglutination of guinea pig red blood cells by >90%; UTI89 bacteria
T1 construct: endogenous in cells; host or cells: E. coli UTI89 whole bacteria (piliated), with guinea pig red blood cells
Description: “HAI titer or EC>90” is that concentration of the FimH inhibitor/antagonist which reduces the bacterial agglutination of guinea pig red blood cells by greater than 90%.
The activities of the Examples 1-40 compounds above as FimH antagonists/inhibitors were obtained by the following assay(s), and values are provided in Table 1. The values not provided mean that the activities have not yet been tested.
Hemagglutination Inhibition Assay (HAI)
The hemagglutination inhibition (HAI) assay was performed with UTI89 bacteria and guinea pig red blood cells, as previously described (S. J. Hultgren, W. R. Schwan, A. J. Schaeffer, J. L. Duncan Infect. Immun. 1986, 54, 613-620 and Jarvis, C.; Han, Z.; Kalas, V.; Klein, R.; Pinkner, J. S.; Ford, B.; Binkley, J.; Cusumano, C. K.; Cusumano, Z.; Mydock-McGrane, L.; Hultgren, S. J.; Janetka, J. W., ChemMedChem 2016, 11, 367-373). Values not listed were not tested.

[1] = Rat pharmacokinetics (IV infusion 1 mg/kg, then PO 5 mg/kg; blood and urine); type: in vivo, Male Wistar Han rats; details: for PK DNAUC h * uM (DNAUC oral, dose normalized): PO 5 mg/kg, blood, AUC divided by dose in mg/kg; for bioavailability: male, Wistar Han, whole blood, oral bioavailability from dose-normalized AUC, PO 5 mg/kg vs IV infusion 1 mg/kg; for Ue % (Ue % po): percentage of oral dose eliminated unchanged in urine, or estimate from IV urinary % times oral bioavailability
Description: General Assays for Obtaining AUC Oral h*μm, % F, and Ue % PO Values
Male Wistar Han rats were purchased from Vital River Laboratory Animal Technology Co. Ltd (Beijing, China). The animals were approx. 6-8 weeks old with body weights of 200-300 g on the dosing date. The animals were housed in a 12-hour light/12-hour dark cycle environment and had free access to food and water. All animals were fed prior to dosing. Studies were approved by the Pharmaron Institutional Animal Care and Use Committee (IACUC).
Test article was administered as an intravenous infusion for 1 hour (1 mg/kg) at 5 mL/kg/h. After 48 h, animals received a single oral dose (5 mg/kg, free form) at a dose volume of 10 mL/kg, respectively. Blood samples were collected at various time points after IV infusion and PO administrations. Urine samples were collected at various time points after IV infusion and PO administrations (for some compounds).
Test article was dissolved in DMSO with vortexing and sonification to obtain a stock solution. An aliquot of the stock solution was mixed with 10% HP-β-CD in saline with vortexing to obtain a solution with concentration at 0.2 mg/mL of test article.
Test article was added into 1% Methyl Cellulose with vortexing and sonication to obtain a homogeneous suspension with concentration at 0.5 mg/mL of test article.
For IV infusion (1 mg/kg) administration, blood samples were collected from each animal at 0, 0.25, 0.5, 0.75, 1, 1.08, 1.25, 1.5, 1.75, 2, 3, 5, 8, 12, 24 hour post-dose.
For PO (5 mg/kg) administration, blood samples were collected from each animal at 0, 0.25, 0.5, 1, 1.5, 2, 3, 4, 6, 8, 12, 24 hour post-dose.
Blood samples (50 μL) were collected from each animal via jugular vein. These blood samples were placed into tubes containing K2EDTA. Whole blood was mixed with same volume of water and inverted several times. The blood samples were stored at −75±15° C. until analysis.
For IV infusion (1 mg/kg) administration, urine samples were collected from each animal at 0-4, 4-8, 8-12, 12-24 hour post-dose.
For PO (5 mg/kg) administration, urine samples were collected (for some compounds) from each animal at 0-4, 4-8, 8-12, 12-24 hour post-dose.
55 μL of standards, 55 μL of QC samples or 55 μL of unknown samples (50 μL of blood or urine with 5 μL 50% acetonitrile) were mixed to 200 μL of acetonitrile containing IS (dexamethasone) to precipitate proteins. Then the samples were vortexed for 30 sec. After centrifugation at 4° C., 4700 rpm for 30 min, and 5 μL of the supernatant was injected into the LC-MS/MS system for quantitative analysis.
Test article blood and urine concentrations for each animal following IV infusion at 1 mg/kg and PO at 5 mg/kg were used to calculate pharmacokinetic parameters by employing a non-compartmental analysis (Phoenix™ WinNonlin® 7.0). The linear trapezoidal algorithm was used for AUC calculation. • AUC oral h*uM: Area under the curve (AUC) of drug concentration in blood vs. time (units: h*μM) following oral administration • DNAUC Dose normalized area under the curve is calculate by divided the area under the curve divided by the dose in the mg/kg • % F: Oral bioavailability (%) derived from the ratio of dose-normalized AUC following PO and IV administration • Ue % PO: Percentage of oral dose eliminated unchanged in urine or an estimate of that parameter generated from using the percentage of the iv dose eliminated in the urine times the oral bioavailability Production Methods: […]

| SMILES | HAI nM (FimH) | PK DNAUC h * uM (DNAUC oral, dose normalized) [1] | bioavailability [1] [%] | Ue % (Ue % po) [1] |
| --- | --- | --- | --- | --- |
| Cc1cc(-c2ccnc(C(F)(F)F)n2)ccc1O[C@H]1O[C@H](CO)[C@@H](O)[C@H](O)[C@@H]1O [Example 14] | “+++” (50-200) | “+” (<01 h · μM) | – | – |
| Cc1cc(-c2cnc(C3CC3)cn2)ccc1O[C@H]1O[C@H](CO)[C@@H](O)[C@H](O)[C@@H]1O [Example 12] | “++++” (<50) | “++” (0.1 ≤ × ≤ 0.2h · μM) | > 30 | “++” (0.5 ≤ × ≤ 5%) |
| Cc1cc(-c2cc(C(F)(F)F)ccn2)ccc1O[C@H]1O[C@H](CO)[C@@H](O)[C@H](O)[C@@H]1O [Example 5, (2R,3S,4S,5S,6R)-2-(hydroxymethyl)-6-(2-methyl-4-(4-(trifluoromethyl)pyridin-2-yl)phenoxy)tetrahydro-2H-pyran-3,4,5-triol] | “+++” (50-200) | “+++” (>0.2 h · μM) | > 30 | – |
| Cc1cc(-c2cc(F)cc(C#N)c2)ccc1O[C@H]1O[C@H](CO)[C@@H](O)[C@H](O)[C@@H]1O [Example 4, 5-Fluoro-3′-methyl-4′-(((2R,3S,4S,5S,6R)-3,4,5-trihydroxy-6-(hydroxymethyl)tetrahydro-2H-pyran-2-yl)oxy)-[1,1′-biphenyl]-3-carbonitrile] | “+++” (50-200) | “+++” (>0.2 h · μM) | > 30 | – |
| Cc1cc(-c2cnc(C(F)(F)F)cn2)ccc1O[C@H]1O[C@H](CO)[C@@H](O)[C@H](O)[C@@H]1O [Example 1, (2R,3S,4S,5S,6R)-2-(Hydroxymethyl)-6-(2-methyl-4-(5-(trifluoromethyl)pyrazin-2-yl)phenoxy)tetrahydro-2H-pyran-3,4,5-triol] | “++++” (<50) | “+++” (>0.2 h · μM) | > 30 | “+++” (>5%) |
| OC[C@H]1O[C@H](Oc2c(F)cc(-c3ccc(C(F)(F)F)nc3)cc2C(F)(F)F)[C@@H](O)[C@@H](O)[C@@H]1O [Example 35] | – | “+” (<01 h · μM) | – | – |
| Cc1cc(-c2cnc(C(F)(F)F)nc2)ccc1O[C@H]1O[C@H](CO)[C@@H](O)[C@H](O)[C@@H]1O [Example 16] | “++++” (<50) | “++” (0.1 ≤ × ≤ 0.2h · μM) | – | – |
| N#Cc1cc(F)cc(-c2cc(F)c(O[C@H]3O[C@H](CO)[C@@H](O)[C@H](O)[C@@H]3O)c(C(F)(F)F)c2)c1 [Example 6] | “++++” (<50) | “+” (<01 h · μM) | – | – |
| OC[C@H]1O[C@H](Oc2ccc(-c3cnc(C(F)(F)F)cn3)cc2C(F)(F)F)[C@@H](O)[C@@H](O)[C@@H]1O [Example 3, (2R,3S,4S,5S,6R)-2-(Hydroxymethyl)-6-(2-(trifluoromethyl)-4-(5-(trifluoromethyl)pyrazin-2-yl)phenoxy)tetrahydro-2H-pyran-3,4,5-triol] | “+++” (50-200) | “++” (0.1 ≤ × ≤ 0.2h · μM) | 10 to 30 | – |
| OC[C@H]1O[C@H](Oc2c(F)cc(-c3ccc(C(F)(F)F)cn3)cc2C(F)(F)F)[C@@H](O)[C@@H](O)[C@@H]1O [Example 28] | “++++” (<50) | “+++” (>0.2 h · μM) | 10 to 30 | – |
| Cc1cc(-c2cnc(N3CCCC3)cn2)ccc1O[C@H]1O[C@H](CO)[C@@H](O)[C@H](O)[C@@H]1O [Example 7] | “++++” (<50) | “+” (<01 h · μM) | – | – |
| Cc1cc(-c2cncc(C#N)c2)ccc1O[C@H]1O[C@H](CO)[C@@H](O)[C@H](O)[C@@H]1O [Example 37] | “++++” (<50) | “+” (<01 h · μM) | – | – |
| N#Cc1cncc(-c2cc(F)c(O[C@H]3O[C@H](CO)[C@@H](O)[C@H](O)[C@@H]3O)c(C(F)(F)F)c2)c1 [Example 38] | “++++” (<50) | “+” (<01 h · μM) | – | – |
| Cc1cc(-c2ccc(C(F)(F)F)nc2)ccc1O[C@H]1O[C@H](CO)[C@@H](O)[C@H](O)[C@@H]1O [Example 26] | “+++” (50-200) | – | – | – |
| N#Cc1cc(F)cc(-c2ccc(O[C@H]3O[C@H](CO)[C@@H](O)[C@H](O)[C@@H]3O)c(Cl)c2)c1 [Example 11] | “+++” (50-200) | – | – | – |
| Cc1cc(-c2ccnc(C(F)(F)F)c2)ccc1O[C@H]1O[C@H](CO)[C@@H](O)[C@H](O)[C@@H]1O [Example 24] | “+++” (50-200) | – | – | – |
